A short description of data set [1]: Pharmacokinetics of ART in rats in absence and presence of CHR. It is filed as in vivo. Particulars: ART in rat plasma, ART 5 mg/kg intramuscular on day 3, 1 h after 3-day oral CHR (5, 10, 20 mg/kg for 1:1, 1:2, 1:4) or CMC-Na, n = 5, mean ± SD. The protocol:
Male SD rats (200-240 g) were supplied by Laboratory Animal Center of […] Medical University (Grade II, Certificate No. […] Animals were acclimatized in environmentally controlled breeding cages for at least 3 days before being used and were provided with standard laboratory food and water and were fasted for 12 h prior to the study. Water was freely available for rats during experiments. The experimental protocol was approved by the University Ethics Committee. All procedures involving animals were in accordance with the Regulations of the Experimental Animal Administration, State Committee of Science and Technology, People's Republic of China. 20 rats were randomly divided into 4 groups (n = 5). Group A was the control vehicle (ART alone) and group L, M, and H were the combination groups with CHR in three fixed ratios (1:1, 1:2, and 1:4). […] Group A was orally given by 0.5 % CMC-Na solution once per day for 3 days. On day 3, an intramuscular injection of ART (5 mg/kg) was subsequently administered 1 h after CHR or CMC-Na solution pre-exposure. […] Two hours later, animals took food and water freely to replenish. Plasma samples were separated by centrifugation 3500g for 10 min and 200 μL plasmas were stored at -20 °C until analysis. To 100 μL blank plasma, 50 μL ARM working solution (IS, 2 μg/mL), 100 μL methanol aqueous solution (50:50, v/v), and a standard solution or quality control (QC) solution were added. After vortex mixing for 1 min, the sample was extracted with 3 × 3 mL of methyl tert-butyl ether with gentle shaking for 10 min followed by centrifugation at 3500g for 10 min. […] The residue was reconstituted in 100 μL methanol and was filtered through a 0.22 μm nylon filter. Aliquots (10 μL) of the solution were injected onto the LC-MS analysis. Pharmacokinetic parameters were computed from plasma concentration-time profiles of ART by software DAS 3.0.

On the set-up of data set [2]: method as in PMID 17521300, PMID 18064444, PMID 9443848. As to conditions: cited from earlier work.
Data set [3] relates to P. berghei K173 strain. Briefly: In vivo anti-malarial efficacy (chemo-suppressive study) in infected mice. As to conditions: for Parasitemia: placebo 22.15 ± 6.25.
In data set [4] the test system is CYP2A. Briefly: in vitro. Particulars: rat.
The test system of data set [5] is CYP2A. Briefly: In vitro rat liver microsome experiment, CYP2A (probe CA). Background: Liver microsomes are a subcellular fraction often used to study metabolism.
For data set [6], the target named is CYP2E1 (Rattus norvegicus, UniProt P05182). Briefly: In vitro rat liver microsome experiment, CYP2E1 (probe CLZ). The data set is classed as in vitro ADME.
Data set [7] relates to CYP2D6. In words: In vitro rat liver microsome experiment, CYP2D6 (probe DM). It is filed as in vitro ADME. The method, then: (§1) Total reaction volume was complemented to 200 μL by PBS. After pre-incubating for 3 min at 37 °C, the reaction was initiated by the addition of NADPH solution (incubation time was optimized as 45 min for PN; 60 min for CA, 15 min for OPZ; 20 min for DM; 90 min for CLZ; 15 min for MDZ). 200 μL ice acetonitrile was added as stop reagent. After a vortex for 3 min and centrifugation for 10 min at 14,000g, an aliquot of 20 μL supernatant was injected into the HPLC system at an interval of 10 min. The amount of methanol in diluted concentrations (<1 %) had no effect on liver microsomes. All the testing groups were in three replicates (n = 3). Under the optimized condition, Vmax, Michaelis constant (Km), enzyme activity (E%), and IC50 values were obtained.

For data set [8], the system named is CYP2C19. Briefly: In vitro rat liver microsome experiment, CYP2C19 (probe OPZ).
The subject of data set [9] is CYP3A. In words: In vitro rat liver microsome experiment, CYP3A (probe MDZ). The data set is classed as in vitro ADME. The method, then: as §1
Incubation systems including 1.0 mg/mL RLM, PN (12.5, 25.0, and 50.0 μM), NPDPH, and CHR (0, 2, 4, 8 μM) for 1A2 or 0.5 mg/mL RLM, MDZ (2.5, 5.0, 10.0 μM), NPDPH, and CHR (0, 2, 4, 8 μM) for CYP3A were employed as above (n = 3). A serial of Lineweaver–Burk plots by 1/[S] versus 1/V were prepared individually under different concentrations of CHR. The location of intersection point for the linear lines decided the type of inhibition. Namely, if the point lied in Y axis it was competitive inhibition and if it lied in X axis it was non-competitive inhibition. Finally, if the linear lines were paralleled, it was uncompetitive inhibition. Concomitantly, inhibition constant (Ki) was calculated when a second plotting was given by intercepts of the four lines versus [I] (inhibitor concentration).

In data set [10] the target is T1, CYP1A2 (Rattus norvegicus, UniProt P04799).
T1 sequence (P04799 1-513): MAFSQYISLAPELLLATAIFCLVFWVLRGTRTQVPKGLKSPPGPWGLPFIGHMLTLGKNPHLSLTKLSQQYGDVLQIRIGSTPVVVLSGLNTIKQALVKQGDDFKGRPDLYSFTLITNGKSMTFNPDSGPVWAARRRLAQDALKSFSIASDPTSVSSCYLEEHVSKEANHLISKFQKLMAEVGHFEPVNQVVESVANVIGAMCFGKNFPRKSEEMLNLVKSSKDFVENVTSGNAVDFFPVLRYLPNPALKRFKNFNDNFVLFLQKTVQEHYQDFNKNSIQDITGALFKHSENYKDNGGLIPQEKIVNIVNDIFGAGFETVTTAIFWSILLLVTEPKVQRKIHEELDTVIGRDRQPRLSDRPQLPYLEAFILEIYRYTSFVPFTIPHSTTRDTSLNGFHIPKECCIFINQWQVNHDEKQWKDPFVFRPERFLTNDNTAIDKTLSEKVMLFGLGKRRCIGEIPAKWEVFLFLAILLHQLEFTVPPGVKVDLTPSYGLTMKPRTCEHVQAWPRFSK
In words: In vitro rat liver microsome experiment, CYP1A2 (probe PN). The data set is classed as in vitro ADME.

The test system of data set [11] is CYP2C19. In words: in vitro. As to conditions: rat.
Substrate in data set [12]: CCOc1ccc(NC(C)=O)cc1
In words: cells, lysate or membranes named. Particulars: other: probe substrate in rat liver microsomes; 37.0 °C.

Setting [13] is: probe substrate in rat liver microsomes.
The mark [14] stands for this setting: rat liver microsomes, CHR 0–50 μM, P > 0.05.
Where [15] appears, read: moderate: 1 < IC50 < 10 μM, criteria of ref 21.
[16] abbreviates: Lineweaver–Burk plots, rat liver microsomes.

Chain of CYP2E1 (P05182 whole entry): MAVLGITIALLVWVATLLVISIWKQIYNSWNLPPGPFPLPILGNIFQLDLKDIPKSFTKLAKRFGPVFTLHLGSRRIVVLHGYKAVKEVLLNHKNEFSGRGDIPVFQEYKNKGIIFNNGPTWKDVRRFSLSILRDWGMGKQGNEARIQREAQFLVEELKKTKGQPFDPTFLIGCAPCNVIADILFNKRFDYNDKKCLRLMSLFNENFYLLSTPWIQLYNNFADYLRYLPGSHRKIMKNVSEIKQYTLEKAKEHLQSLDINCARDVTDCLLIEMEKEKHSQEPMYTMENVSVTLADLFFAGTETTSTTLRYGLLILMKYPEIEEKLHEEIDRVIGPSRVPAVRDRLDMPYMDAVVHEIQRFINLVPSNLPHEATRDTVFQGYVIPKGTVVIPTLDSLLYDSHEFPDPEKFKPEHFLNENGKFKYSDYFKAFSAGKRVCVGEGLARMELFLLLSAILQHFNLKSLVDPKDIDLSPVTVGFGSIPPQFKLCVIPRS

The term Cmax denotes the peak of the concentration-time curve. For orientation: half-life means the time needed for the level to fall by half in the phase considered. A word on the Inhibition: it is the relative decrease from the control value, in per cent. For `C[C@@H]1CC[C@H]2[C@@H](C)C(=O)O[C@@H]3O[C@@]4(C)CC[C@@H]1[C@]32OO4` [ART, Artemisinin], the “AUC0–t” value in data set [1] came out at 390.58 ± 32.46 µg·h/mL. In data set [1] (male), the Cmax was determined as 51.6 ± 9.47 µg/mL and the half-life is 3.62 ± 0.86 h. For the same molecule, the clearance in [1] (male, read-out: CLz (converted)) was 0.217 mL/min/kg. The oral bioavailability in [2] is 8–10%. In data set [3] (Kunming mice, ART 5 mg/kg alone or with CHR 5, 10, 20 mg/kg (1:1, 1:2, 1:4), 3 days, 24 h after last dosing, n = 10), this molecule registered a Parasitemia of 13.95 ± 7.89 %. For the same molecule, the “decrease of parasitaemia (%) compared with placebo” value in data set [3] (mice, P < 0.05) was 1.59 folds. In [3] (relative to placebo, Kunming mice, ART 5 mg/kg alone or with CHR 5, 10, 20 mg/kg, n = 10), the Inhibition is 37.06%.

For orientation: Km means the concentration of substrate that gives half-maximal velocity. Consider `O=c1ccc2ccccc2o1` [CA, coumarin, reference compound], for which the Km at 60 min in [4] is 8.9 µM. In data set [5] (setting [13]), the Vmax is reported as 0.12 nmol/min/mg proteins.

What is called IC50 is the concentration at which inhibition is half-maximal. Read a high IC50 as lower potency. As usually defined, the Ki is a dissociation constant, usually derived from enzyme kinetics or from competition with a known ligand. Lower therefore signals a stronger hold on the target. For the molecule `COc1cc(-c2oc3cc(OC)c(OC)c(O)c3c(=O)c2OC)ccc1O` [CHR, chrysosplenetin], the IC50 in data set [6] (rat liver microsomes, CLZ 15 μM, GraphPad Prism 5.0) amounted to 28.2 µM; in [10] (rat liver microsomes, PN 25 μM, GraphPad Prism 5.0), 4.61 µM. Also, the inhibitor strength class entry is “weak inhibitor” in [6] (weak: IC50 >10 μM, criteria of ref 21); “moderate inhibitor” in data set [8] (setting [15]); “moderate inhibitor” in [9] (setting [15]); “moderate inhibitor” in data set [10] (setting [15]). Moreover, the “impact on enzyme activity” value in data set [7] (setting [14]) and in [5] (setting [14]) was “no impact” throughout. Further, the IC50 at 15 min in [8] (rat, microsomes) is 6.23 µM; in data set [9] (probe midazolam (MDZ) 5 μM, rat liver microsomes, MDZ 5 μM, GraphPad Prism 5.0), 3.38 µM. In addition, the results for the inhibition type result in [9] (setting [16]) and in data set [10] (setting [16]) were “uncompetitive” and “noncompetitive”, respectively. Further, in data set [9] (rat, rat liver microsomes, probe midazolam (MDZ) 2.5, 0.5 mg/mL RLM, MDZ 2.5, 5.0, 10.0 μM, CHR 0, 2, 4, 8 μM, second plot of Lineweaver–Burk intercepts), the Ki at 15 min amounted to 3.71 µM. In data set [10] (1.0 mg/mL RLM, PN 12.5, 25.0, 50.0 μM, CHR 0, 2, 4, 8 μM, second plot of Lineweaver–Burk intercepts), this molecule yielded a Ki of 4.07 µM. Besides, the Parasitemia is listed as 19.74 ± 13.33% in data set [3] (CHR alone 5 mg/kg (CHR-L), Kunming mice, n = 10); 17.19 ± 5.45% in data set [3] (CHR alone 10 mg/kg (CHR-M), Kunming mice, n = 10); 18.32 ± 8.86% in [3] (CHR alone 20 mg/kg (CHR-H), Kunming mice, n = 10).

On to `COc1ccc2c(c1)[C@]13CCCC[C@@H]1[C@H](C2)N(C)CC3` [DM, dextromethophan], for which, in data set [7] (setting [13]), the Km was 28.9 µM and the Vmax is given as 0.20 nmol/min/mg proteins.

As for `Cc1ncc2n1-c1ccc(Cl)cc1C(c1ccccc1F)=NC2` [MDZ, Midazolam, reference compound], in data set [9] (setting [13]), the Km at 15 min came to 7.88 µM and the Vmax worked out at 0.81 nmol/min/mg proteins.

In the case of `COc1ccc2[nH]c([S+]([O-])Cc3ncc(C)c(OC)c3C)nc2c1` (centres unmarked) [OPZ, omeprazole, reference compound], the Vmax in [8] (setting [13]) was 0.58 nmol/min/mg proteins. In data set [11], the Km at 15 min was 24.1 µM.

B1: CYP1A2 (Rattus norvegicus) (protein)
chain: T1 sequence (P04799 1-513)
Take B1: in data set [12], the Km turned out to be 30.88 µM and the Vmax was found to be 0.14 nmol/min/mg proteins.

(Values after article PMC4632357, “Impact of chrysosplenetin on the pharmacokinetics and anti-malarial efficacy of artemisinin against Plasmodium berghei as well as in vitro CYP450 enzymatic activities in rat liver microsome” (Malaria Journal, 2015).)
